Source: publication PMC7791843, “Production of 10-methyl branched fatty acids in yeast” (Biotechnology for Biofuels, 2021)

Target: T1, T. curvata BfaA (Thermomonospora curvata, UniProt D1ABB3)
T1 construct: gene Tcur_1573; native gene from genomic DNA (DSMZ), plasmid pNC964 (strain NS1164), crude E. coli cell-free extract
T1 sequence (D1ABB3 1-455): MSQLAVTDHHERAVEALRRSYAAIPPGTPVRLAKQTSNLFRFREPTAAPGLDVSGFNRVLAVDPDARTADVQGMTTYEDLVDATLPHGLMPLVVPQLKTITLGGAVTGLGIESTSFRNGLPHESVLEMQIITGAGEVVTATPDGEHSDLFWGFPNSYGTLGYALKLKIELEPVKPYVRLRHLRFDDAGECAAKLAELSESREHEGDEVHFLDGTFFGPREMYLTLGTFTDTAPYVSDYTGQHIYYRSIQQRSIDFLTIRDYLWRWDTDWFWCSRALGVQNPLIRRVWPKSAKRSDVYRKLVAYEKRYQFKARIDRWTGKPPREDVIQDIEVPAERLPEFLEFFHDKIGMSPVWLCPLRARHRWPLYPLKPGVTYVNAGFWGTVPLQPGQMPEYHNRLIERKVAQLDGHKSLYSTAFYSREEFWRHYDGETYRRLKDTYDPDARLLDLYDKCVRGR
Assay: crude extract assay, GC-FID of 10-methyl fatty acid
Type: biochemical
Conditions: 10 mM NADPH, 37 °C, 16 h; heat-inactivated BfaB lysate with 10-methylene acyl chains

NC(=O)C1=CN([C@@H]2O[C@H](COP(=O)(O)OP(=O)(O)OC[C@H]3O[C@@H](n4cnc5c(N)ncnc54)[C@H](OP(=O)(O)O)[C@@H]3O)[C@@H](O)[C@H]2O)C=CC1 [NADPH]
crude extract assay, GC-FID of 10-methyl fatty acid: We detected 10-methylstearic acid production in the presence of NADPH, but not NADH
